Laboratory results as given in patent US20250230151A1, “COMPOUNDS FOR CANCERS DRIVEN BY BRAF MUTATION” (THE BOARD OF TRUSTEES OF THE UNIVERSITY OF ILLINOIS, priority 2021, published 2025).
Read-outs that look alike come from different tables or passages of the source.

What was measured:
P-gp = molecular target: T1, P-gp (Homo sapiens, UniProt P08183); assay: MDR1-MDCK P-gp transwell bidirectional transport assay; format: in vitro ADME; conditions: for Papp A→B at 90 min, 10 µM / Papp B→A at 90 min, 10 µM / efflux ratio at 90 min, 10 µM / Papp at 90 min, 10 µM: dog; for Papp A→B at 90 min, 10 µM / Papp B→A at 90 min, 10 µM / efflux ratio at 90 min, 10 µM: MDCK-MDR1, MDR1-MDCK; for efflux ratio at 90 min, 10 µM: read-out: ER (efflux ratio) (converted); for Papp at 90 min, 10 µM: MDCK-MDR1, range of Papp A-B to B-A, read-out: cell culture permeabilities; for ER (efflux ratio) / Papp A-B / Papp B-A: MDR1-MDCK; for Papp A→B at 90 min, 10 µM / Papp B→A at 90 min, 10 µM / efflux ratio at 90 min, 10 µM / ER (efflux ratio) / Papp A-B / Papp B-A: 10 μM, 90 min
T1 construct: host or cells: MDCK (MDR1-MDCK)
Protocol: A novel compound collection composed of complex and diverse compounds derived from natural products, termed “Complexity-to-Diversity Collection” was employed. […] The CtD compounds were evaluated by the efflux pump and their permeability using the P-gp transwell assay using adapted and optimized known protocols. Compound transport across epithelial cells overexpressing P-gp from basolateral-to-apical and apical-to-basolateral directions were quantified to calculate permeability and efflux ratio.
P-gp transwell bidirectional transport assays. Unless noted otherwise, the transport assay was performed in triplicate in batches of 16 or 24 test compounds, with each batch containing quinidine as a substrate control and propranolol as a non-substrate control. MDR1-MDCK cells were plated at a density of 300,000 cells/cm^2 onto 96-well Falcon™ Multiwell Insert System with 1 µm pore polycarbonate filters with angled-bottom receiver plates (Coming) and were fed with the cell growth medium on day 2.
The donor solution was prepared by adding 1 mM DMSO stocks of compounds to make the final concentration […], and the receiver solution was prepared with equivalent volume of DMSO to make 1% DMSO in final assay chamber volumes.
After 80-96 hours since seeding, the growth media on both sides was aspirated. To the transwell plate (apical side), 50 μL of receiver and donor solutions prepared on a 96-well plate were added, and it was placed on top of a separate angled-bottom 96-well plate (basolateral side) containing 260 μL of receiver and donor solutions.
Following 90 minutes of incubation at 37° C. with shaking at 90 rpm, 20 μL aliquot of samples were taken from both the donor and receiver chambers, and the apical and basolateral sides. Aliquots of 4 test compounds were pooled for each category: apical-donor, apical-receiver, basolateral-donor, basolateral-receiver. To measure CO and mass balance, initial donor samples from both apical and basolateral side were set aside from the assay plate. Acetonitrile twice the volume of pooled samples was added and mixed thoroughly, and precipitated proteins were removed by centrifugation at 20,000 r.c.f for 10 minutes.
To ascertain the MDCK monolayer integrity, the solution on apical side contained 100 µM Lucifer Yellow (Millipore-Sigma). After 90 minutes of compound transport, Lucifer Yellow concentration in the basal well was measured using SpectraMax M3 (Molecular Devices) set to an excitation wavelength of 430 nm and an emission wavelength of 540 nm.
Samples were analyzed with the 5500 QTRAP LC/MS/MS system (AB Sciex) with a 1200 series HPLC system (Agilent Technologies) including a degasser, an autosampler, and a binary pump. The liquid chromatography separation was performed on an Agilent SB-Aq column (4.6×50 mm, 5 μm) (Agilent Technologies) with mobile phase A (0.1% formic acid in water) and mobile phase B (0.1% formic acid in acetonitrile). The flow rate was 0.3 ml min^−1. The linear gradient was optimized for each compound. The autosampler was set at 5° C. The injection volume was 15 μL. Mass spectra were acquired with both positive electrospray ionization at the ion spray voltage of 5,500 V and negative electrospray ionization at the ion spray voltage of −4,500 V. The source temperature was 450° C. The curtain gas, ion source gas 1, and ion source gas 2 were 33, 50 and 65, respectively. Multiple reaction monitoring was used to quantify metabolites.
Efflux data calculations.

AM-38 cells = assay: 72-hour cell viability assay (Alamar Blue), AM-38; format: cell-based; conditions: glioma
Protocol: (§1) Cell Culture and reagents. All cell lines were grown in a 37° C., 5% CO2, humidified environment, in media containing 1% penicillin/streptomycin. Cell culture conditions are as follows: MDCK cells transfected with MDR1 (or ABCB1) were obtained from the Netherlands Cancer Institute (Amsterdam, The Netherlands) and maintained in DMEM with 10% fetal bovine serum (FBS, Gemini). Traditional cell lines A375, CHL-1, B16F10, and U118MG were grown in DMEM with 10% FBS, SK-MEL-28, U87 and T98G in EMEM with 10% FBS, AM-38 in EMEM with 20% HI-FBS (Gibco), HT29 in McCoy's 5A with 10% FBS, HCT116 in RPMI with 10% FBS. Compounds were dissolved in DMSO (1% final concentration, Sigma-Aldrich) for cell culture studies.
(§2) Cell viability assays. Cells were harvested, seeded in a 96-well plate and allowed to adhere overnight. Compound was added to each well in DMSO (1% final concentration). Cells were incubated for 72 hours before viability was assessed by the Alamar Blue Assay. Raptinal ([…]) was used as a dead control.

B16F10 cells = assay: 72-hour cell viability assay (Alamar Blue), B16F10; format: cell-based
Protocol: as §1, §2

[1] = system: MAPK signaling (phospho-MEK1/2, phospho-ERK1/2) in A375 cells; assay: Immunoblotting of MEK1/2 and ERK1/2 phosphorylation, A375; format: cell-based, human; conditions: for dose-response of phospho-ERK1/2 inhibition: A375, 0.01-10 μM, 1 and 24 h; for inhibition of MAPK signaling (MEK1/2 and ERK1/2 phosphorylation): A375, 1 h of treatment; for inhibition of ERK1/2 phosphorylation after 24 h: A375, highest concentrations (10 μM)
Protocol: Immunoblotting. Cells were lysed using RIPA buffer containing phosphatase (BioVision) and protease inhibitor cocktail (Calbiochem). Protein concentration was determined using the BCA assay (Pierce). Cell lysates containing […] of protein were loaded into each lane of 4% to 20% gradient gels (Bio-Rad) for SDS-PAGE. Proteins were transferred onto PDVF membrane for Western blot analysis. Blots were blocked with BSA for one hour followed by incubation with primary antibody overnight (dilution according to manufacturer's protocols), and then secondary antibody was incubated for one hour. Blots were then imaged with a ChemiDoc Touch (Bio-Rad) after incubation with SuperSignal West Pico Solution (ThermoFischer) following manufacturer's protocols. All antibodies were purchased from Cell Signaling Technology: p-ERK (9101S), ERK (4695S), p-MEK (9121S), MEK (8727S), vinculin (13901S) Rabbit IgG-HRP (7074), […] (5125).

[2] = Homo sapiens, AM-38, V600E BRAF
[3] = Mus musculus, B16-F10, WT BRAF, melanoma, read-out: B16F10 (WT) IC50
[4] = Mus musculus, B16-F10, WT BRAF, read-out: B16F10 IC50

T1 sequence (P08183 whole entry): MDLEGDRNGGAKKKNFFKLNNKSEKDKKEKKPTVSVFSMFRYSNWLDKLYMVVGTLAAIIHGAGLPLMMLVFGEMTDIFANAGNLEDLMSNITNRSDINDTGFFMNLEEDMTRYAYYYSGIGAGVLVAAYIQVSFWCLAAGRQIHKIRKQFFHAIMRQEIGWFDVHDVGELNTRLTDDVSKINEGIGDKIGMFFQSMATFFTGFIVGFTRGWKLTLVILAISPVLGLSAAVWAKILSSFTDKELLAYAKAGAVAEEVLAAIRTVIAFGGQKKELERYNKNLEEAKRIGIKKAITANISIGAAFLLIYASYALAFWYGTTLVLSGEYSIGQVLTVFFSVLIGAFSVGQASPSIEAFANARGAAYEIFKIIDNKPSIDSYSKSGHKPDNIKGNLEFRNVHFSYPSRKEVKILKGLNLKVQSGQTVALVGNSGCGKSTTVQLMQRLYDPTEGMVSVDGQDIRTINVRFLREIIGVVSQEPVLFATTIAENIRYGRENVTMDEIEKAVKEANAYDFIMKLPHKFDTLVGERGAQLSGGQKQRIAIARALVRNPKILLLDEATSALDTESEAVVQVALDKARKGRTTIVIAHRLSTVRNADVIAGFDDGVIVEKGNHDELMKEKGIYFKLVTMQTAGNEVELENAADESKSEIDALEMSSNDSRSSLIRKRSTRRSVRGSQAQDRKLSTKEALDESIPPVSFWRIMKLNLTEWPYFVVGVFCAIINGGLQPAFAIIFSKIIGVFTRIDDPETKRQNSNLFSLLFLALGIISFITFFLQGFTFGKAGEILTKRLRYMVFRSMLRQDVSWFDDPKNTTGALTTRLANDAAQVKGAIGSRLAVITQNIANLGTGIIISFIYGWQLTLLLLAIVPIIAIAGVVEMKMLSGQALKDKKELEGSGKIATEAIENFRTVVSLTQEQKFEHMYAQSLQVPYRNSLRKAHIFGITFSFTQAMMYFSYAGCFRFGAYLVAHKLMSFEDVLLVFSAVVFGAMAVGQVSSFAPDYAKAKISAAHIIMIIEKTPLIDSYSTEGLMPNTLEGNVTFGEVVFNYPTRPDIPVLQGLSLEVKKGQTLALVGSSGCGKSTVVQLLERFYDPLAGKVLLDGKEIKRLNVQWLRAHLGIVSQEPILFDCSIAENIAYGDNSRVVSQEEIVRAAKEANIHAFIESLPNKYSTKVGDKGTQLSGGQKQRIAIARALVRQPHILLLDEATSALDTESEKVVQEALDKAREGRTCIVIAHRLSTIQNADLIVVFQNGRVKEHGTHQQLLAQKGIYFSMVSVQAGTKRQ

Row | Compound | Papp A→B at 90 min, 10 µM (P-gp) | Papp B→A at 90 min, 10 µM (P-gp) | efflux ratio at 90 min, 10 µM (P-gp) | Papp at 90 min, 10 µM (P-gp) | IC50 (AM-38 cells; [2]) | IC50 (B16F10 cells; [3]) | IC50 (B16F10 cells; [4]) | dose-response of phospho-ERK1/2 inhibition [1] | inhibition of MAPK signaling (MEK1/2 and ERK1/2 phosphorylation) [1] | inhibition of ERK1/2 phosphorylation after 24 h [1] | ER (efflux ratio) (P-gp) | Papp A-B (P-gp) | Papp B-A (P-gp) | Papp A-B (P-gp; listed as 6-74) | Papp B-A (P-gp; listed as 6-74) | ER (efflux ratio) (P-gp; listed as dabrafenib) | IC50 (AM-38 cells; V600E BRAF) | IC50 (B16F10 cells; WT BRAF, read-out: B16F10 IC50)
1 | CCCS(=O)(=O)Nc1cc(Cl)cc(-c2nc(C(C)(C)C)sc2-c2ccnc(NCCCCC(=O)O)n2)c1F [6-263, 5-((4-(2-(tert-butyl)-4-(5-chloro-2-fluoro-3-(propylsulfonamido)phenyl)thiazol-5-yl)pyrimidin-2-yl)amino)pentanoic acid] | 2.15 ± 0.07 ×10⁻⁶ cm/s | 2.49 ± 0.435 ×10⁻⁶ cm/s | 1.17 | 2.2 to 2.5 ×10⁻⁶ cm/s | 93.2 ± 14.1 nM | > 10000 nM | > 10000 nM | clear dose-dependent inhibition | strongly inhibited | sustained |  |  |  |  |  |  |  | 
2 | CC(C)(C)c1nc(-c2cccc(NS(=O)(=O)c3c(F)cccc3F)c2F)c(-c2ccnc(N)n2)s1 [Dabrafenib, reference compound] |  |  |  |  |  |  |  |  |  | diminished inhibition | 17.94 ± 6.97 | 1.26 ± 0.672 ×10⁻⁶ cm/s | 13.2 ± 1.63 ×10⁻⁶ cm/s | 1.257 ± 0.672 ×10⁻⁶ cm/s | 13.192 ± 1.632 ×10⁻⁶ cm/s | 17.9 | 6.84 ± 0.84 nM | > 1000 nM
3 | CCCS(=O)(=O)Nc1cc(Cl)cc(-c2nc(C(C)(C)C)sc2-c2ccnc(N)n2)c1F [6-261, N-(3-(5-(2-aminopyrimidin-4-yl)-2-(tert-butyl)thiazol-4-yl)-5-chloro-2-fluorophenyl)propane-1-sulfonamide] | 4.92 ± 0.806 ×10⁻⁶ cm/s | 6.42 ± 2.45 ×10⁻⁶ cm/s | 1.4 | 4.9 to 6.4 ×10⁻⁶ cm/s | 8.5 ± 1.2 nM | > 1000 nM | > 1000 nM | clear dose-dependent inhibition | strongly inhibited | sustained |  |  |  |  |  |  |  | 
